{"source": "patent US5436254A", "about": "“Carbostyril derivatives” (Otsuka Pharmaceutical Company, Ltd., priority 1989, dated 1995)", "data": [{"biological_target": "V1 receptor (Rattus norvegicus, UniProt P30560)", "sequence (P30560 whole entry)": "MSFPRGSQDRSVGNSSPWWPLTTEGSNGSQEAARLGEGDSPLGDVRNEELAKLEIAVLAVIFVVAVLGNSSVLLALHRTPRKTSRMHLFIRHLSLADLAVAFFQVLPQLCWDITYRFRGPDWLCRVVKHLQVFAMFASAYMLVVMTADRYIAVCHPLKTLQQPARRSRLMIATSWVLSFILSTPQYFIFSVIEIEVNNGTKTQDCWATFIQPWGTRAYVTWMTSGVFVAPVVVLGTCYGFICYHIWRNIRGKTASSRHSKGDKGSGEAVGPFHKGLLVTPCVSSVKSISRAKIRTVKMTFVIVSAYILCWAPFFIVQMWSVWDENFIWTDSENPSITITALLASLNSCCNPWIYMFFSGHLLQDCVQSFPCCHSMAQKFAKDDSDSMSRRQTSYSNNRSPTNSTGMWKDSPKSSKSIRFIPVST", "experiment": "biochemical", "type": "binding", "units": {"IC50": "nM"}, "values": [{"smiles": "O=C(c1ccc(OCCCCCS(=O)(=O)c2ccccn2)cc1)N1CCC(N2C(=O)CCc3ccccc32)CC1", "note": "[Example 287, 1-{1-(4-[5-(2-Pyridylsulfonyl)pentyloxy]benzoyl)-4-piperidinyl}-3,4-dihydrocarbostyril]", "IC50": 100}, {"smiles": "O=C(c1ccc(OCC2CO2)cc1)N1CCC(N2C(=O)CCc3ccccc32)CC1", "note": "(centres unmarked) [Example 101, 1-[1-(4-Glycidoxybenzoyl)-4-piperidinyl]-3,4-dihydrocarbostyril]", "IC50": 1600}, {"smiles": "O=C(c1ccc(OCCCCCS(=O)(=O)c2ccc([N+](=O)[O-])cc2)cc1)N1CCC(N2C(=O)CCc3ccccc32)CC1", "note": "[Example 285, 1-{1-(4-[5-(4-Nitrophenylsulfonyl)pentyloxy]benzoyl)-4-piperidinyl}-3,4-dihydrocarbostyril]", "IC50": 230}, {"smiles": "COc1ccc(C(=O)N2CCC(N3C(=O)CCc4ccccc43)CC2)c(OCCCOC(N)=O)c1", "note": "[Example 65, 1-{1-[2-(3-Carbamoyloxypropoxy)-4-methoxybenzoyl]-4-piperidinyl}-3,4-dihydrocarbostyril]", "IC50": 270}, {"smiles": "CC(=O)OC1CCC(C(=O)NCCCCCOc2ccc(C(=O)N3CCC(N4C(=O)CCc5ccccc54)CC3)cc2)CC1OC(C)=O", "note": "(centres unmarked) [Example 261, 1-{1-(4-[5-(3,4-Diacetoxycyclohexylcarbonyl)aminopentyloxy]benzoyl)-4-piperidinyl}-3,4-dihydrocarbostyril]", "IC50": 120}, {"smiles": "O=C(c1ccc(C2CCCCC2)cc1)N1CCC(N2C(=O)CCc3ccccc32)CC1", "note": "[Example 112, 1-[1-(4-Cyclohexylbenzoyl)-4-piperidinyl]-3,4-dihydrocarbostyril]", "IC50": 970}, {"smiles": "CC[N+](CC)(CC)CCCCCOc1ccc(C(=O)N2CCC(N3C(=O)CCc4ccccc43)CC2)cc1", "note": "[Example 235, 1-{1-[4-(5-Triethylammouniumpentyloxy)benzoyl]-4-piperidinyl)-3,4-dihydrocarbostyril bromide]", "IC50": 66}, {"smiles": "O=C(NCCCCOc1ccc(C(=O)N2CCC(N3C(=O)CCc4ccccc43)CC2)cc1)C1CCNCC1", "note": "[Example 231, 1-[1-(4-[4-(4-Piperidinylcarbonylamino)butoxy]benzoyl)-4-piperidinyl)-3,4-dihydrocarbostyril]", "IC50": 41}, {"smiles": "CC(=O)OCCCCCCOc1ccc(C(=O)N2CCC(N3C(=O)CCc4ccccc43)CC2)cc1", "note": "[Example 130, 1-{1-[4-(6-Acetoxyhexyloxy)benzoyl]-4-piperidinyl}-3,4-dihydrocarbostyril]", "IC50": 390}, {"smiles": "O=C(CCCCCOc1ccc(C(=O)N2CCC(N3C(=O)CCc4ccccc43)CC2)cc1)N1CCNCC1", "note": "[Example 270, 1-{1-(4-[5-(1-Piperazinylcarbonyl)pentyloxy]benzoyl)-4-piperidinyl}-3,4-dihydrocarbostyril]", "IC50": 44}, {"smiles": "CN(CCO)CC(=O)NCCCCCOc1ccc(C(=O)N2CCC(N3C(=O)CCc4ccccc43)CC2)cc1", "note": "[Example 257, 1-{1-(4-[5-(2-(N-(2-Hydroxyethyl)-N-methylamino)acetylamino)pentyloxy]benzoyl)-4-piperidinyl}-3,4-dihydrocarbostyril]", "IC50": 200}, {"smiles": "O=C(c1ccc(OCCCCCN2CCCCC2CO)cc1)N1CCC(N2C(=O)CCc3ccccc32)CC1", "note": "(centres unmarked) [Example 241, 1-{1-(4-[5-(2-Hydroxymethyl-1-piperidinyl)pentyloxy]benzoyl)-4-piperidinyl}-3,4-dihydrocarbostyril]", "IC50": 21}, {"smiles": "CSCC[C@H](NC(=O)CCCCCOc1ccc(C(=O)N2CCC(N3C(=O)CCc4ccccc43)CC2)cc1)C(N)=O", "note": "[Example 153, 1-{1-[4-(5-[1-(S)-Carbamoyl-3-(methylthio)]propylaminocarbonylpentyloxy)benzoyl]-4-piperidinyl}-3,4-dihydrocarbostyril]", "IC50": 84}, {"smiles": "Nc1ccc(SCCCCCOc2ccc(C(=O)N3CCC(N4C(=O)CCc5ccccc54)CC3)cc2)cc1", "note": "[Example 284, 1-{1-(4-[5-(4-Aminophenylthio)pentyloxy]benzoyl)-4-piperidinyl}-3,4-dihydrocarbostyril]", "IC50": 400}, {"smiles": "C=CCOCCCOc1ccc(C(=O)N2CCC(N3C(=O)CCc4ccccc43)CC2)cc1", "note": "[Example 87, 1-(1-[4-(3-Allyloxypropoxy)benzoyl]-4-piperidinyl}-3,4-dihydrocarbostyril]", "IC50": 530}, {"smiles": "O=C(N[C@@H](CO)C(=O)NCCCOc1ccc(C(=O)N2CCC(N3C(=O)CCc4ccccc43)CC2)cc1)OCc1ccccc1", "note": "[Example 226, 1-[1-{4-(3-(S)-{N-(Benzyloxycarbonyl)seryl}aminopropoxy]benzoyl)-4-piperidinyl]-3,4-dihydrocarbostyril]", "IC50": 480}, {"smiles": "CN(CCO)CCCCCOc1ccc(C(=O)N2CCC(N3C(=O)CCc4ccccc43)CC2)cc1", "note": "[Example 244, 1-{1-(4-[5-(N-(2-Hydroxyethyl)-N-methylamino)pentyloxy]benzoyl)-4-piperidinyl}-3,4-dihydrocarbostyril]", "IC50": 34}, {"smiles": "CN1CCN(CC(O)CCCCOc2ccc(C(=O)N3CCC(N4C(=O)CCc5ccccc54)CC3)cc2)CC1", "note": "(centres unmarked) [Example 178, 1-{1-[4-(5-Hydroxy-6-(4-methyl-1-piperazinyl)hexyloxy]benzoyl]-4-piperidinyl}-3,4-dihydrocarbostyril]", "IC50": 45}, {"smiles": "O=C(c1ccc(OCCCN2CCN(CC(O)c3ccccc3)CC2)cc1)N1CCC(N2C(=O)CCc3ccccc32)CC1", "note": "(centres unmarked) [Example 138, 1-{1-[4-{3-[4-(2-Phenyl-2-hydroxyethyl)-1-piperazinyl]propoxy}benzoyl]-4-piperidinyl}-3,4-dihydrocarbostyril.dioxalate]", "IC50": 240}, {"smiles": "CNC(=O)CNc1cc(OC)ccc1C(=O)N1CCC(N2C(=O)CCc3ccccc32)CC1", "note": "[Example 105, 1-[1-(4-Methoxy-2-methylaminocarbonylmethylamino)-4-piperidinyl]-3,4-dihydrocarbostyril]", "IC50": 1200}, {"smiles": "CN(C)CCCNC(=O)CCCCCOc1ccc(C(=O)N2CCC(N3C(=O)CCc4ccccc43)CC2)cc1", "note": "[Example 197, 1-(1-[4-(5-(3-Dimethylaminopropyl)aminocarbonylpentyloxy)benzoyl]-4-piperidinyl}-3,4-dihydrocarbostyril]", "IC50": 35}, {"smiles": "O=C(c1ccc2c(c1)OCO2)N1CCC(N2C(=O)CCc3ccccc32)CC1", "note": "[Example 113, 1-[1-(3,4-Methylenedioxybenzoyl)-4-piperidinyl]-3,4-dihydrocarbostyril]", "IC50": 980}, {"smiles": "COc1ccc(C(=O)N2CCC(N3C(=O)CCc4ccccc43)CC2)c(N2CCOC2=O)c1", "note": "[Example 51, 1-{1-[2-(2-Oxooxazolydine-3-yl)-4-methoxybenzoyl]-4-piperidinyl}-3,4-dihydrocarbostyril]", "IC50": 490}, {"smiles": "CN1CCN(CCCCOc2ccc(C(=O)N3CCC(N4C(=O)CCc5ccccc54)CC3)cc2)CC1", "note": "[Example 158, 1-{1-[4-[4-(4-Methyl-1-piperazinyl)butoxy]benzoyl]-4-piperidinyl}-3,4-dihydrocarbostyril.dioxalate]", "IC50": 100}, {"smiles": "NC(=O)OCCCCCCOc1ccc(C(=O)N2CCC(N3C(=O)CCc4ccccc43)CC2)cc1", "note": "[Example 212, 1-{1-[4-(6-Carbamoyloxyhexyloxy)benzoyl]-4-piperidinyl}-3,4-dihydrocarbostyril]", "IC50": 160}, {"smiles": "CN(C)CC(O)CCCCOc1ccc(C(=O)N2CCC(N3C(=O)CCc4ccccc43)CC2)cc1", "note": "(centres unmarked) [Example 131, 1-{1-[4-(6-Dimethylamino-5-hydroxyhexyloxy)benzoyl]-4-piperidinyl}-3,4-dihydrocarbostyril]", "IC50": 66}]}]}
